Assays:
[1] = test system: Coturnix japonica; conditions: acute; oral; mortality
[2] = test system: Tagia sp.; conditions: acute; duration: 14 days; mortality
[3] = test system: Oncorhynchus mykiss; conditions: acute; duration: 96 hours; mortality
[4] = test system: Apis mellifera; conditions: acute; duration: 48 hours; oral; unspecified; mortality
[5] = test system: Rattus norvegicus; conditions: for NOAEL: inhalation
[6] = chronic, duration: 2 years, no effects
[7] = reproduction developmental, mortality
[8] = subchronic, duration: 90 days, no effects

[Al+3].[P-3] [Aluminum phosphide]
LD50 [1]: 49 mg/kg-day
LC50 [2]: 664 mg/kg
LC50 [3]: 4.68 ng/mL
LD50 [4]: 0.24 µg/piece
LD50 ([5]; acute, oral, mortality): 8.7 mg/kg-day
NOAEL [5, 6]: 1.1 mg/kg-day
NOAEL [5, 7]: 1.9 mg/kg-day
NOAEL [5, 8]: 1.1 mg/kg-day

P [Phosphine]
NOAEL [5, 6]: 1.1 mg/kg-day
NOAEL ([5]; developmental, duration: 10 days, development): 1.9 mg/kg-day
NOAEL [5, 7]: 1.9 mg/kg-day
NOAEL ([5]; subchronic, duration: 90 days, mortality): 1.11 mg/kg-day
NOAEL [5, 8]: 1.1 mg/kg-day

From EPA's ToxValDB 9.5 (doi:10.2903/j.efsa.2009.182r)
